Data set [1] has as its system CD1 pups with unilateral carotid ligation (ischemic seizures). The conditions noted are these: for latency to the 1st-detected seizure: drug given IP immediately after ligation.
For data set [2] the following is noted: adult mouse, 0.5 mg/kg IP, cited from earlier work.
The next data set relates to KCC2. Description: Western blot of KCC2 expression, ipsilateral normalized to contralateral hemisphere, post-ligation. The data set is classed as in vivo, mouse. The procedure:
Western blot at 3 h and 24 h post-ligation. All animals were anesthetized with chloral hydrate (90 mg/ml; IP) before being transcardially perfused. The whole brains of P7 and P10 pups were harvested at either 3 h or 24 h post-ligation, and were frozen as ipsilateral and contralateral hemisphere. The brains were stored in −80° C. until further use. Homogenized whole brain lysates were suspended in cell lysis buffer with 10% protease/phosphatase inhibitor cocktail. Total protein concentrations were quantified through Bradford Assay (Bio-Rad) at 570 nm wavelength, and the samples were diluted for 50 ug of protein at 20 ul of loading volume for gel electrophoresis.
Samples were run on 4-20% gradient 1.5 mm 15 wells SDS gels (Invitrogen) for 100-120 min with 130V, and were transferred onto nitrocellulose membranes for overnight wet-transfer for minimum of 18 hours at 30V. After the transfer, the nitrocellulose membranes underwent 1 h blocking step in odyssey buffer, before overnight incubation in primary antibodies: rabbit α-KCC2 (1:1000, Millipore; Cat. No. 07-432); rabbit α-NKCC1 (1:500, Millipore, Cat. No. AB3560P); mouse α-actin (1:10000, LI-COR Biosciences, Cat. No. 926-42214). On the next day, nitrocellulose membranes were washed with TBS containing tween detergent, and then were incubated in […] secondaries for 1 h (1:5000 for both goat α-mouse 680LT and goat α-rabbit 800CW, LI-COR Biosciences). Chemiluminescent protein bands were analyzed using the Odyssey infrared imaging system 2.1 (LI-COR Biosciences). The optical density of each protein sample was normalized to the actin bands run on each lane for internal control. The expression levels of the proteins of interest in ipsilateral hemispheres were normalized to the same in contralateral hemispheres for each pup. The human brain was recently shown to express two splice variants of NKCC1 (a and b) and the NKCC1 probe used in this study and all previous studies referenced here can only detect the NKCC1a isoform because the targeted epitope site of this probe overlaps with exon 21 that is spliced in the dominant isoform NKCC1b. A reliable pan-NKCC1 probe is not currently available.
A smaller sample of naïve age-matched controls (n=8, 4 each at P8 and P11, equal sexes) was run with the 24 h WB data (brains harvested at P8 and P11, i.e.; 24 h after P7 and P10 ligations). […] This pilot established that contralateral hemispheres were ideal controls for normalization of KCC2 and NKCC1 expression in ipsilateral injured hemispheres for this study similar to previously reported conclusions in another ischemia model.
(In western blotting, separated proteins are transferred to a membrane and probed.)

In data set [3] the test system is CD1 mice with permanent unilateral carotid-ligation (acute ischemic seizures). Description: Video-EEG seizure burden after carotid ligation at P7, P10, P12 with PB and adjunct BTN (Example 2). In kind it is in vivo, mouse. The conditions noted are these: for reduction of seizure burden: PB 25 mg/kg IP 1 h after ligation; for effect of adjunct BTN on PB-efficacy: BTN 0.1-0.2 mg/kg IP 2 h post-ligation.
Procedure: Experimental design. […] All surgery was performed under isoflurane general anesthesia, and all efforts were made to minimize suffering. All litters of CD1 mice were purchased from Charles River Laboratories Inc. (Wilmington, Mass.). Newly born litters of pups arrived at postnatal 3 or 4 days old, and were allowed to acclimate. […] Ninety two pups from 12 litters were included in the video-EEG study (n=48 male and n=44 female). The susceptibility to ischemic seizures was tested at 3 developmental ages i.e., 7, 10 and 12 days old CD1 pups (n=80 ligated and 12 shams). […] The pups underwent permanent ligation and sham surgeries followed by 3 h of EEG recording each, as described in methods (total pups=92 of which ligates P7=29, P10=24 and P12=27 and sham P7=5, P10=4 and P12=3; see Table 2). From the ligated group of pups (total n=80), the ligated-control pups also underwent 3 h EEG recordings to evaluate natural progression of ischemic seizure burden over the duration of treatment efficacy evaluated in this study (total pups n/n=26/80, P7=8, P10=9 and P12=9). […] Since the severity of stroke-injury and seizure varies between pups, the baseline EEG of each pup served as an important internal control. Additionally, since the exact time-point of onset for ischemia in human neonates is not known and may not be a single massive event, the 1 h of non-treatment also served as an important delay expected in the treatment of neonatal seizures that are detected hours after stroke in humans.
Surgical procedure for ischemic insult and electrode implantation. Animals were anesthetized with 2% isoflurane. The right common carotid artery was permanently double-ligated with 6-0 surgisilk and the outer skin closed with 6-0 monofilament nylon to induce ischemia (i.e.; ischemia was induced by unilateral common carotid ligation alone. Unlike other rat models commonly used for neonatal stroke, no global hypoxia is needed to induce acute ischemic seizures). Since the ligated carotid is not transected in our model, the intact pulsating carotid artery with silk ligatures can lead to reperfusion over time in this model. The constrictive efficacy (which drops cerebral perfusion to 40% or less) of the silk ligatures is known to diminish, due to the loss of their tensile strength in-vivo against the pulsating artery as a function of time. […] The animals were then implanted with three sub-dermal EEG electrodes (1 recording, 1 reference, and 1 ground) on the skull overlying the parietal cortex using bregma as a reference. Scalp wire electrodes made for sub-dermal use in humans (IVES EEG; Model # SWE-L25-MA, USA) were implanted, sub-dermally fixed with adhesive, in the pups. […] In this study, the recording and reference electrodes were implanted less than 1 cm apart. Pups were then allowed to recover from anesthesia in a 36° C. isothermal chamber for 3 h recording of video-EEG (FIG. 12). At the end of the recording session, the pups were returned to the dams after removal of the sub-dermal electrodes and application of local anesthetic medication.
In vivo synchronous video-EEG recording. […] Data acquisition was done using PAL-8400 software with synchronous video capture (Pinnacle Technology Inc.). […] The files were stored in .EDF format and scored in real time using the review and scoring software package.

For data set [4] the following is noted: cited from earlier work.
In another data set the test system is ischemic seizures. Description: CLP290 in the neonatal ischemic seizure model, 3 h EEG (Example 3). The conditions noted are these: 20 mg/kg, n=4, vs vehicle (HPCD).
The next data set relates to HIE seizures. The conditions noted are these: neonates, cited from earlier work.

Where “and” joins values, the source holds several entries; their conditions need not be identical. Equal entries are not always repeated. Where two headings read alike, the source gives them in different places.

`O=C(Nc1ccccc1C(=O)NC1CCCCNC1=O)c1cc2ccccc2s1` (stereo not drawn) [ANA12, N-[2-[[(Hexahydro-2-oxo-1H-azepin-3-yl)amino]carbonyl]phenyl] benzo[b]thiophene-2-carboxamide]: the “latency to the 1st-detected seizure” value in data set [1] (P7) was found to be 202.3 ± 38.8 s; in data set [1] (P10) it was 245.8 ± 39.8 s. In addition, the “post-treatment mortality rate vs vehicle (Fisher's exact test)” value in data set [1] (P7 p=0.58, P10 p=1.00) was “did not show a statistical significance”. Besides, the “anti-seizure effect on EEG seizure burden” value in data set [1] (P7 pups) and in data set [1] (P10 pups) was “did not have any anti-seizure effect” each time. Moreover, the “age- and sex-dependent seizure susceptibility to ischemic seizures” value in data set [1] (P7 vs P10, baseline seizure burden) is “not altered”. The brain concentration is recorded as 400 nM in data set [2] (0.5 h) and 10 nM in data set [2] (6 h). Moreover, the “effect on post-ischemic degradation of KCC2 expression” value in the data set with KCC2 (3 h post-ischemia) is recorded as “underwent degradation of KCC2”; with KCC2 (P7 and P10, 24 h post-ischemia) it was “failed to prevent the post-ischemic KCC2 degradation”. Also, in the data set on KCC2 (P7, 3 h post-ischemia), the “downregulation of KCC2 expression” value is recorded as 15-20%. Also, the “KCC2 degradation compared to the contralateral hemisphere” value in the data set on KCC2 (P7, 24 h post-ischemia) is given as 15-18%; in the data set on KCC2 (P10, 24 h post-ischemia), around 12%.

A word on the half-life: it is the time needed for the level to fall by half in the phase considered. On to `CCC1(c2ccccc2)C(=O)NC(=O)NC1=O` [PB, phenobarbital], for which the “reduction of seizure burden” value in data set [3] (P10) was determined as 61%; in data set [3] (P12), 64%. Moreover, in data set [1] (P10 pups, ANA12 2.5 mg/kg IP after ligation (or none), PB 25 mg/kg IP at 1 h, 2nd h vs baseline EEG), the “percent PB seizure suppression over baseline” value is recorded as 68%. Besides, in data set [4] (immature rodents), the half-life is around 900 min.

Turning to `O=C1N=C(N2CCCCN2)S/C1=C\c1ccc(F)cc1OC(=O)N1CCCC1` [CLP290], the anti-seizure activity alone result in the data set with ischemic seizures is reported as “can act independently as an anti-seizure agent”.

`CCCCNc1cc(C(=O)O)cc(S(N)(=O)=O)c1Oc1ccccc1` [BTN, bumetanide]: the “effect of adjunct BTN on PB-efficacy” value is reported as “did not improve PB-efficacy” in data set [3] (P7), “PB-induced seizure suppression was lost” in data set [3] (P10) and “failed to act as an effective adjuvant” in data set [3] (P12). Moreover, in data set [3] (P7, PB 25 mg/kg at 1 h, BTN 0.1-0.2 mg/kg at 2 h post-ligation), the “anti-seizure effect on total time spent seizing on EEG” value is “failed to have any significant anti-seizure effect”. In addition, in data set [3] (any age (P7, P10, P12)), the “electrographic seizure scores after follow-on BTN” value was “did not add any significant therapeutic benefit”. Moreover, the “efficacy for HIE seizures” value in the data set on HIE seizures (clinical trial terminated) is on record as “inefficacy”. Moreover, the safety finding result in the data set with HIE seizures is on record as “ototoxicity”. The “adjunct anti-seizure effect of BTN given 1 h after PB” value in data set [1] (P10, ANA12+PB treated pups, BTN 0.1-0.2 mg/kg IP, 3rd h) is given as “significantly blunted PB-efficacy by increasing the seizure burden”. Also, the half-life in data set [4] (rodents) is < 30 min and ~30 min.

(Values after patent publication US10525024B2, “Methods for rescuing phenobarbital-resistance of seizures by ANA-12 or ANA-12 in combination with CLP290” (THE JOHNS HOPKINS UNIVERSITY, priority 2014, dated 2020).)
